Data as given in ChEMBL document CHEMBL1833811, “Design, synthesis and structure-activity relationship of novel [3.3.1] bicyclic sulfonamide-pyrazoles as potent γ-secretase inhibitors” (Bioorg Med Chem Lett, 2011).

Key:
[1] = Ratio of drug uptake in brain to plasma of wild type FVB mouse; type: ADME; settings: brain and plasma, read-out: BPR
[2] = Oral bioavailability in wild type FVB mouse; type: ADME, organism-based; settings: in vivo

Row | Kp [1] | SMILES | bioavailability [2]
1 | 0.3 | O=S(=O)(c1ccc(C(F)(F)F)nc1)N1C2Cc3[nH]ncc3C1CC(c1ccc(F)cc1)C2 (single isomer, unassigned) | 
2 | 0.08 | Cc1noc(C2CC3Cc4[nH]ncc4C(C2)N3S(=O)(=O)c2ccc(Cl)cc2)n1 (single isomer, unassigned) | 
3 |  | O=S(=O)(c1ccc(Cl)cc1)N1C2CCCC1c1cn[nH]c1C2 (single isomer, unassigned) | 2%
